According to patent US20260185169A1, “MOLECULAR SIGNATURES TO PREDICT LONG-TERM LIVER FIBROSIS PROGRESSION” (THE BOARD OF REGENTS OF THE UNIVERSITY OF TEXAS SYSTEM, priority 2022, published 2026):

Test system: FPS and molecular pathways
Assay: Modulation of FPS and molecular pathways in hepatic transcriptome (RNA-Seq, CES/GSEI) in CENTAUR trial biopsies
Assay type: in vivo, human
Text: Archived formalin-fixed liver tissues from index biopsy were used for histological assessment in all patients (FIG. 1 and Table 1A-11) to confirm no to minimal fibrosis (METAVIR fibrosis stage F0 or F1). The PLS validation set 1 (and FPS derivation set 1) is a case-control series of 43 chronic hepatitis C patients from a prior cohort study consecutively diagnosed and followed at Johns Hopkins and Massachusetts General Hospital between 1998 and 2010. Twenty-five patients were co-infected with HIV and on anti-retroviral therapies. The patients were regularly followed up with ultrasound elastography at median interval of 1.1 (IQR: 0.6-2.0) years. Liver stiffness measurement >7.0 and >9.5 kPa were regarded as indication of F2 and F3 fibrosis, respectively. The PLS validation set 2 (and FPS derivation set 2) is a case-control series of 38 patients who consecutively underwent liver transplantation for HCV-related cirrhosis and protocol liver biopsies at year 1, 2, and 5 after transplantation (and additional biopsies as needed to evaluate graft rejection, which were excluded) at Baylor University between 2002 and 2007. Median number of biopsies was 8 (IQR: 6-9) per patient with median interval between serial biopsies of 8.6 (IQR: 0.3-12.6) months. […] The FPS derivation set 3 is a cross-sectional series of 31 NAFLD patients who underwent diagnostic liver biopsy at Hiroshima University between 2003 and 2015. The FPS derivation set 4 is a cross-sectional series of 309 NAFLD patients who underwent diagnostic liver biopsy (F0 or F1 fibrosis) at Massachusetts General Hospital between 2009 and 2016. […] The cases were defined as patients who had F-stage increase of one stage or more in the follow-up biopsy. The FPS validation set 2 includes 78 patients with fibrotic liver diseases from various etiologies, for which de-identified fresh liver tissues were available from standard-care hepatic resection for organotypic ex vivo tissue culture at University of Texas Southwestern and Mount Sinai. The FPS validation set 3 consists of NASH patients with F1-F3 fibrosis who underwent liver biopsy before and after 1-year treatment with cenicriviroc (n=9) or placebo (n=10) in the phase Ilb CENTAUR trial (NCT02217475). Decrease of one or more fibrosis stage was regarded as anti-fibrotic response. The serum surrogate FPS was assessed in archived de-identified serum samples from 79 patients with chronic liver diseases. The FPSec validation set is a cohort of 122 patients with compensated (Child-Pugh class A) cirrhosis patients with mixed etiologies enrolled at University of Michigan between 2004 and 2006 as reported in our previous study. Hepatic decompensation was defined as newly developed massive ascites, hepatic encephalopathy, bleeding from gastroesophageal varices, or liver transplantation. The study was approved by institutional review board at respective institutions with written informed consent or exemption for use of archived de-identified samples (protocol numbers: STU062018-058, STU072018-071, 2010P000220/PHS, HS13-00159).
Total RNA was isolated from fixed tissue sections by using High Pure RNA Paraffin kit (Roche), and assessed for quality by qRT-PCR of RPL13A. Total RNA from the PCLS tissues was isolated using RNeasy kit (Qiagen). RNA samples (100-200 ng) were subjected to the PLS/FPS assay implemented in the nCounter platform (NanoString), and transcriptome profiling of the CENTAUR trial samples was performed by RNA-Seq (TrueSeq RNA Access, Illumina). Expression of BCL2, COL1A1, and ACTA2 genes was measured by qRT-PCR (Table 3). Serum protein profiling was performed by using xMAP assay (Luminex). […]

[1] = Fibrosis improved, NASH patients, Hallmark set, Cell cycle, DNA damage, response
[2] = Fibrosis improved, NASH patients, Hallmark set, Cellular signaling
[3] = Fibrosis improved, NASH patients, Hallmark set, Inflammatory response, immunity
[4] = Fibrosis improved, NASH patients, Hallmark set, Metabolism, biosynthesis
[5] = Fibrosis improved, NASH patients, Hallmark set, Pathogenic response
[6] = Fibrosis improved, NASH patients, Hallmark set, Sex hormone signaling
[7] = Fibrosis improved, NASH patients, Hallmark set, Stress response
[8] = Fibrosis improved, NASH patients, Immune cell signature (GSE65136)
[9] = Fibrosis improved, NASH patients, Nuclear receptor signaling (curated pathway members)
[10] = Fibrosis improved, NASH patients, PPAR agonists on mouse primary hepatocytes (GSE27948)
[11] = Fibrosis not improved, NASH patients, Hallmark set, Cell cycle, DNA damage, response

## CCCCOCCOc1ccc(-c2ccc3c(c2)/C=C(/C(=O)Nc2ccc([S@@+]([O-])Cc4cncn4CCC)cc2)CCCN3CC(C)C)cc1 [Cenicriviroc]
1-year cenicriviroc treatment
  modulation of TGF-β and PDGFRB pathways: unchanged
CENTAUR trial, 1-year treatment, paired pre/post biopsies
  proportion of patients with substantial CES reduction (FPS response): 22%
[1]
  NES, DNA repair gene set: 1.44
  NES, G2M checkpoint gene set: −1.33
  NES, Mitotic spindle gene set: −1.61
Fibrosis improved, NASH patients, Hallmark set, Cell death
  NES, Apoptosis gene set: 1.32
[2]
  NES, E2F targets gene set: −1.36
  NES, Hedgehog signaling gene set: −0.65
  NES, KRAS signaling gene set: 1.31
  NES, Myc targets v1 gene set: 1.56
  NES, Myc targets v2 gene set: 1.26
  NES, Notch signaling gene set: 1.00
  NES, PI3K/AKT/mTOR signaling gene set: 0.91
  NES, TGFβ signaling gene set: 0.81
  NES, TNFα signaling via NF-κB gene set: 0.96
  NES, Wnt/β-catenin signaling gene set: −1.07
  NES, mTORC1 signaling gene set: 1.71
  NES, p53 pathway gene set: 1.00
[3]
  NES, Allograft rejection gene set: 1.83
  NES, IL2 STAT5 signaling gene set: 0.89
  NES, IL6 JAK STAT3 signaling gene set: 0.95
  NES, Inflammatory response gene set: 1.38
  NES, Interferon-α response gene set: 2.12
  NES, Interferon-γ response gene set: 2.07
[4]
  NES, Adipogenesis gene set: 1.60
  NES, Bile acid metabolism gene set: 1.62
  NES, Cholesterol homeostasis gene set: 1.19
  NES, Coagulation gene set: 1.57
  NES, Complement gene set: 2.07
  NES, Fatty acid metabolism gene set: 2.22
  NES, Glycolysis gene set: 1.10
  NES, Heme metabolism gene set: −0.98
  NES, Oxidative phosphorylation gene set: 2.49
  NES, Peroxisome gene set: 1.49
  NES, Protein secretion gene set: 1.57
  NES, Xenobiotic metabolism gene set: 1.66
[5]
  NES, Angiogenesis gene set: 1.47
  NES, Epithelial mesenchymal transition gene set: 1.41
[6]
  NES, Androgen response gene set: 1.52
  NES, Estrogen response early gene set: −0.79
  NES, Estrogen response late gene set: 1.12
[7]
  NES, Hypoxia gene set: 0.97
  NES, Myogenesis gene set: −0.95
  NES, Reactive oxygen species gene set: 1.07
  NES, UV response up gene set: 1.12
  NES, Unfolded protein response gene set: 1.34
[8]
  NES, B cell (naïve) gene set: −0.52
  NES, CD4 T cell (naïve) gene set: −0.57
  NES, CD8 T cell gene set: 1.13
  NES, DC (activate) gene set: 1.35
  NES, Gamma delta T cell gene set: 1.09
  NES, Macrophage (M1) gene set: 1.42
  NES, Macrophage (M2) gene set: 2.66
  NES, Mast cell (active) gene set: 1.22
  NES, Mast cell (rest) gene set: −1.59
  NES, Memory B cell gene set: −0.72
  NES, Memory T cell (rest) gene set: 0.80
  NES, Monocyte gene set: 2.81
  NES, NK cell (rest) gene set: 1.12
  NES, Neutrophil gene set: 1.87
  NES, Plasma cell gene set: 0.98
  NES, Regulatory T cell gene set: −0.99
  NES, T follicular helper cell gene set: 1.22
[9]
  NES, FXR pathway gene set: −1.06
  NES, PPAR signaling gene set (first listed): 1.81
  NES, PPAR signaling gene set (second listed): 1.70
  NES, PPARα pathway gene set (first listed): 1.55
  NES, PPARα pathway gene set (second listed): 0.92
  NES, RAR/RXR pathway gene set: −1.50
  NES, RXR/VDR pathway gene set: −1.10
Fibrosis improved, NASH patients, PPAR agonist on human primary hepatocytes (GSE53399)
  NES, GW7647 (PPARa agonist) gene set: 1.84
[10]
  NES, GW501516 (PPARd agonist) gene set: 1.16
  NES, ROSIGLITAZONE (PPARg agonist) gene set: 1.36
  NES, WY14643 (PPARa agonist) gene set: 1.56
Fibrosis improved, NASH patients, iLINCS
  NES, PDGFRB target gene signature: −0.83
[11]
  NES, DNA repair gene set: 0.85
  NES, G2M checkpoint gene set: 2.00
